How the values were obtained:
Rac1-GTP = Rac1-GTP pull-down assay in A549 cells; type: cell-based, human
Procedure: (§1) A549 cells were incubated for 24 or 48 h with or without FTS, as described above, and then lysed with lysis buffer as described in Haklai, R., Gana-Weisz, M., Elad, G., et al., Biochemistry 37:1306-14 (1998). The apparent amounts of K-Ras-GTP in 0.5 mg protein of total cell lysates were determined by the glutathione-S-transferase (GST)-RBD (Ras-binding domain of Raf) pull-down assay, as described in (Elad-Sfadia, G., Haklai, R., Ballan, E., Gabius, H. J., Kloog, Y., J Biol Chem 277:37169-75 (2002). The apparent amounts of Rac1-GTP and of RhoA-GTP, each in 2 mg protein of total cell lysates, were determined, respectively, by pull-down assays with GST-PBD (Rac1-binding domain of PAK1)-conjugated and GST-Rhotekin BD (Rho-binding domain of Rhotekin)-conjugated beads [Benard, V., Bohl, B. P., Bokoch, G. M, J Biol Chem 274:13198-204 (1999); Fiordalisi, J. J., Keller, P. J., Cox, A. D., Cancer Res 66:3153-61 (2006). […] Levels of phospho-ERK and phospho-Akt were determined by immunoblotting [Haklai, R., Gana-Weisz, M., Elad, G., et al., supra.] using rabbit anti phospho-ERK1/2 Ab (Santa Cruz Biotechnology, Santa Cruz, Calif.) and rabbit anti phospho-Akt Ab (Cell Signaling, Beverly, Mass.). Protein bands were visualized by enhanced chemiluminescence and quantified by densitometry using ImageJ computer software (National institutes of Health, Bethesda, Md.). […]

phospho-Akt = assay: Phospho-Akt immunoblotting in A549 cells; type: cell-based, human
Procedure: as §1

K-Ras-GTP = target: T1, K-Ras-GTP (Homo sapiens, UniProt P01116, G12S); assay: K-Ras-GTP GST-RBD pull-down assay and immunoblotting in A549 cells; type: cell-based
T1 construct: endogenous in cells; host or cells: A549 (ATCC)
T1 sequence (P01116 whole entry G12S): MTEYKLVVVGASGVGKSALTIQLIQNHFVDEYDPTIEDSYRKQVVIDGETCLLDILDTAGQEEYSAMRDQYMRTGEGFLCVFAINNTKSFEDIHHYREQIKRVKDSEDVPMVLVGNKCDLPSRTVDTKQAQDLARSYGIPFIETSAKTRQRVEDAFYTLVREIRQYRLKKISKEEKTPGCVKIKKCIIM
Procedure: A549 cells were incubated for 24 or 48 h with or without FTS, as described above, and then lysed with lysis buffer as described in Haklai, R., Gana-Weisz, M., Elad, G., et al., Biochemistry 37:1306-14 (1998). The apparent amounts of K-Ras-GTP in 0.5 mg protein of total cell lysates were determined by the glutathione-S-transferase (GST)-RBD (Ras-binding domain of Raf) pull-down assay, as described in (Elad-Sfadia, G., Haklai, R., Ballan, E., Gabius, H. J., Kloog, Y., J Biol Chem 277:37169-75 (2002). The apparent amounts of Rac1-GTP and of RhoA-GTP, each in 2 mg protein of total cell lysates, were determined, respectively, by pull-down assays with GST-PBD (Rac1-binding domain of PAK1)-conjugated and GST-Rhotekin BD (Rho-binding domain of Rhotekin)-conjugated beads [Benard, V., Bohl, B. P., Bokoch, G. M, J Biol Chem 274:13198-204 (1999); Fiordalisi, J. J., Keller, P. J., Cox, A. D., Cancer Res 66:3153-61 (2006). The pulled-down GTPases were subjected to SDS-PAGE followed by immunoblotting with the appropriate antibodies: anti K-Ras (1:30; Calbiochem, La Jolla, Calif.), anti Rac-1 (1:2500; Santa Cruz Biotechnology, Santa Cruz, Calif.), or anti RhoA (1:700; Upstate Biotechnology, Lake Placid, N.Y.). Immunoblots were exposed to 1:2500 peroxidase-goat anti-mouse IgG. Levels of phospho-ERK and phospho-Akt were determined by immunoblotting [Haklai, R., Gana-Weisz, M., Elad, G., et al., supra.] using rabbit anti phospho-ERK1/2 Ab (Santa Cruz Biotechnology, Santa Cruz, Calif.) and rabbit anti phospho-Akt Ab (Cell Signaling, Beverly, Mass.). Protein bands were visualized by enhanced chemiluminescence and quantified by densitometry using ImageJ computer software (National institutes of Health, Bethesda, Md.).
To determine whether active K-Ras-GTP and its prominent downstream signals to ERK and Akt were inhibited in A549 cells, and if so, whether the […] growth of the cells was also affected, two experiments were performed. First, A549 cells were incubated in the absence and in the presence of various concentrations of FTS and K-Ras-GTP, phospho-ERK and phospho-Akt levels were measured.

HTB-58 cells = assay: HTB-58-cell-implanted nude mouse model, tumor growth; type: in vivo, nude mice; conditions: 10 mg/kg FTS i.p. daily
Procedure: Nude mice (6 weeks old) were housed in barrier facilities on a 12-h light/dark cycle. Food and water were supplied ad libitum. On day zero, A549 or HTB-58 cells (5×10^6 cells in 0.1 ml PBS) were implanted subcutaneously (s.c.) just above the right femoral joint. After 5 or 11 days the mice were separated randomly into control groups that had received only the vehicle and FTS-treated groups. Daily FTS treatments were administered either intraperitoneally (i.p.) or orally. Tumor volumes or weights were determined as described in Barkan, B., Starinsky, S., Friedman, E., Stein, R., Kloog, Y., Clin Cancer Res 12:5533-42 (2006). Gemcitabine treatment (36 mg/kg, i.p.) was administered every 4 days.
Tumor volume measured 14 days after cell implantation in that group was 0.02±0.045 cm^3 compared to 0.09±0.08 cm^3 in the vehicle-treated controls (P<0.05).

A549 cells = assay: Drug combination experiments, live cell counting; type: cell-based, human; conditions: FTS alone 40 μM
Procedure: In drug combination experiments, cells were grown for 2 days in the absence or in the presence of 40 μM FTS and were then treated for 4 h with gemcitabine (100 or 200 nM), cisplatin (50 or 100 nM), doxorubicin (50 or 100 nM), or paclitaxel (2.5 or 5 nM). Live cells were counted after a further 3 days of incubation with or without FTS. Experiments were performed twice in quadruplicate. To determine whether A549 cells were resistant to apoptosis, an experiment to examine the survival of human lung cancer A549 cells after exposure to a chemotherapeutic agent in the presence of FTS was performed. Thus, to determine whether treatment with FTS can increase the sensitivity of A549 cells to cytotoxic drugs, A549 cells were incubated for 48 h with DMSO (control) or with 40 μM FTS, then for 4 h with gemcitabine, cisplatin, doxorubicin, or paclitaxel at the indicated concentrations. The cells were then washed and incubated for a further 72 h with DMSO or with 40 μM FTS. Live cells were collected and counted. The numbers of cells in the drug-treated cultures, expressed as percentages of the numbers in the vehicle-treated control, are shown in FIGS. 13A-13D. Values are means±SD. *P<0.05, **P<0.01, compared to vehicle-treated control.

- reduction in K-Ras-GTP (mean±SD) (K-Ras-GTP; 25 μM FTS): 23±15.3%
- reduction in K-Ras-GTP (mean±SD) (K-Ras-GTP; 50 μM FTS): 37±3.7%
- reduction in K-Ras-GTP (mean±SD) (K-Ras-GTP; 75 μM FTS): 46±1.9%
- effective concentration range for the reduction in K-Ras-GTP (K-Ras-GTP; A549 cells): 50 to 75 µM
- effect on the total amount of Ras (K-Ras-GTP; A549 cells, various FTS concentrations): no significant effect
Compound: CC(C)=CCC/C(C)=C/CC/C(C)=C/CSc1ccccc1C(=O)O [FTS, S-farnesylthiosalicylic acid]
- effect on the amount of active Rac1-GTP (Rac1-GTP): no effect
- inhibition of phospho-Akt level (phospho-Akt): 58±6%
- inhibition of tumor growth (HTB-58 cells): 76.4±48.8%
- tumor volume (HTB-58 cells; 14 days after cell implantation): 0.02±0.045 cm^3
- reduction in cell numbers (mean±SD) (A549 cells; cisplatin experiment (FIG. 13C)): 33±9.5%
- reduction in cell numbers (mean±SD) (A549 cells; gemcitabine experiment (FIG. 13A)): 25±6.3%

From patent publication US8232253B2, “Treatment of lung cancer” (Ramot at Tel-Aviv University Ltd., priority 2006, dated 2012)
